Data taken from PubChem BioAssay AID1259408 (Genetic Toxicology Data Bank (GENE-TOX), 2018).
Active and inactive are the calls of the source. How the calls were made is not given here.

Tested on: GENE-TOX genotoxicity assays, various organisms and cells
Assay: GENE-TOX mutagenicity studies
Conditions: for call: Assay Type: In vivo carcinogenicity studies
[1] = Species/Cell Type: Escherichia coli polA (W3110 vs P3478), Assay Type: Rec-assay, DNA effects (bacterial DNA repair), Assay Code: RE2-, Evaluation Type: Evaluation A (Pre-1980)
[2] = Species/Cell Type: Escherichia coli polA (W3119 vs P3478), Assay Type: Rec-assay, DNA effects (bacterial DNA repair), Assay Code: RE1T, Evaluation Type: Evaluation A (Pre-1980)
[3] = Species/Cell Type: Fischer rat embryo (RLV/1706) cells, Assay Type: Cell transformation, viral enhanced, Assay Code: CTR-, Evaluation Type: Evaluation A (Pre-1980)
[4] = Species/Cell Type: Nonhuman, Assay Code: CCGT, Evaluation Type: Evaluation A (Pre-1980)
[5] = Species/Cell Type: Nonhuman, Assay Type: Sister-chromatid exchange (SCE) in vivo, Assay Code: SC3+, Evaluation Type: Evaluation B (Post-1980)
[6] = Species/Cell Type: Nonhuman, Assay Type: Sister-chromatid exchange (SCE) in vivo, Assay Code: SC3T, Evaluation Type: Evaluation A (Pre-1980)
[7] = Species/Cell Type: Saccharomyces cerevisiae, Assay Type: Mitotic recombination or gene conversion, Assay Code: YEH-, Evaluation Type: Evaluation A (Pre-1980)
[8] = Species/Cell Type: Salmonella typhimurium (one or more of the five standard strains: TA98, TA100, TA1535, TA1537, and TA1538), Assay Type: Histidine reverse gene mutation, Ames assay, Assay Code: SAL+*, Activation: With metabolic activation, Evaluation Type: Evaluation A (Pre-1980)
[9] = Species/Cell Type: Salmonella typhimurium (one or more of the five standard strains: TA98, TA100, TA1535, TA1537, and TA1538), Assay Type: Histidine reverse gene mutation, Ames assay, Assay Code: SALT, Evaluation Type: Evaluation A (Pre-1980)
[10] = Species/Cell Type: Salmonella typhimurium (one or more of the five standard strains: TA98, TA100, TA1535, TA1537, and TA1538), Assay Type: Histidine reverse gene mutation, Ames assay, Assay Code: SAL+, Evaluation Type: Evaluation A (Pre-1980)
[11] = Species/Cell Type: Arabidopsis species, Assay Type: Gene mutation, Assay Code: ARM+, Evaluation Type: Evaluation A (Pre-1980)
[12] = Species/Cell Type: Drosophila melanogaster, Assay Type: Sex-linked recessive lethal gene mutation, Assay Code: SRL+, Evaluation Type: Evaluation A (Pre-1980)
[13] = Species/Cell Type: Human lymphocytes, Assay Type: Sister-chromatid exchange (SCE) in vitro, Assay Code: SCLT, Evaluation Type: Evaluation B (Post-1980)
[14] = Species/Cell Type: Human, Assay Type: Sister-chromatid exchange (SCE) in vitro, Assay Code: SC1T, Evaluation Type: Evaluation B (Post-1980)
[15] = Species/Cell Type: Chinese hamster lung (V79) cells, Assay Type: Forward gene mutation at the HPRT or ouabain locus, Assay Code: V79-*, Activation: With metabolic activation, Evaluation Type: Evaluation A (Pre-1980)

`c1ccc2c(c1)c1cccc3ccc4cccc2c4c31` was tested, and the mutagenic call (Species/Cell Type: Chinese hamster lung (V79) cells, Assay Type: Forward gene mutation at the HPRT or ouabain locus, Assay Code: V79-, Evaluation Type: Evaluation A (Pre-1980)) was “inactive; negative”, the mutagenic call [1] was “inactive; negative” and the mutagenic call [2] was “no conclusion”. The mutagenic call [3] was “inactive; negative”, the mutagenic call (Species/Cell Type: Human diploid fibroblasts, Assay Type: Unscheduled DNA synthesis (UDS) in vitro, DNA effects, Assay Code: UDH+*, Activation: With metabolic activation, Evaluation Type: Evaluation A (Pre-1980)) was “active; positive” and the mutagenic call (Species/Cell Type: Mouse (BALB/c-3T3) cells, Assay Type: Cell transformation, Assay Code: CTB-, Evaluation Type: Evaluation A (Pre-1980)) was “inactive; negative”. The mutagenic call (Species/Cell Type: Mouse lymphoma (L5178Y) cells, Assay Type: Forward gene mutation at the thymidine kinase (TK) locus, chromosome aberrations, Assay Code: L51T, Evaluation Type: Evaluation A (Pre-1980)) was “no conclusion”, the call [4] was “no conclusion” and the mutagenic call (Species/Cell Type: Nonhuman, Assay Type: Sister-chromatid exchange (SCE) in vitro, Assay Code: SC2T, Evaluation Type: Evaluation B (Post-1980)) was “no conclusion”. The mutagenic call [5] was “active; positive”, the mutagenic call [6] was “no conclusion” and the mutagenic call [7] was “inactive; negative”. The mutagenic call [8] was “active; positive” and the mutagenic call (Species/Cell Type: Syrian hamster embryo (SHE) cells, Assay Type: Cell transformation, clonal assay, Assay Code: CTC-, Evaluation Type: Evaluation A (Pre-1980)) was “inactive; negative”.
For `O=C(CCCCCCCCC(=O)N1CC1)N1CC1`, the mutagenic call (Species/Cell Type: Hordeum vulgare (barley), Assay Type: Chromosome aberrations, Assay Code: HOC+, Evaluation Type: Evaluation A (Pre-1980)) was “active; positive” and the mutagenic call (Species/Cell Type: Vicia faba, Assay Type: Chromosome aberrations, Assay Code: VIC+D, Dose Response: With dose response, Evaluation Type: Evaluation A (Pre-1980)) was “active; positive”.
For `CSC\C=C(C)/C=C\C=C(C)/C=C\C1=C(C)CCCC1(C)C`, the mutagenic call (Species/Cell Type: Human, Assay Type: Sister-chromatid exchange (SCE) in vitro, Assay Code: SC1+D, Dose Response: With dose response, Evaluation Type: Evaluation B (Post-1980)) was “active; positive”.
In the case of `CCc1nc(N)nc(N)c1-c1ccc(Cl)cc1`, the mutagenic call [9] is reported as “no conclusion”.
With `COc1ccccc1-c1ccccc1` the mutagenic call [7] was “inactive; negative” and the mutagenic call (Species/Cell Type: Salmonella typhimurium (one or more of the five standard strains: TA98, TA100, TA1535, TA1537, and TA1538), Assay Type: Histidine reverse gene mutation, Ames assay, Assay Code: SAL-, Evaluation Type: Evaluation A (Pre-1980)) was “inactive; negative”.
`CCOC(=O)N1CC1` was tested, and the mutagenic call (Species/Cell Type: Schizosaccharomyces pombe, Assay Type: Reverse gene mutation, Assay Code: YEZ+, Evaluation Type: Evaluation A (Pre-1980)) was “active; positive”.
For `Nc1ccc(-c2nc(N(CCO)CCO)c3ccccc3n2)s1`, the mutagenic call [9] was “no conclusion”.
With `O=c1ccn([C@H]2C[C@H](O)[C@@H](CO)O2)c(=O)[nH]1` the mutagenic call (Species/Cell Type: Drosophila melanogaster, Assay Type: Sex-linked recessive lethal gene mutation, Assay Code: SRLT, Evaluation Type: Evaluation A (Pre-1980)) was “no conclusion”.
With `NC12CC3CC(CC(C3)C1)C2` the mutagenic call [3] was “inactive; negative”.
With `OCc1ccccc1` the mutagenic call (Species/Cell Type: Escherichia coli polA (W3119 vs P3478), Assay Type: Rec-assay, DNA effects (bacterial DNA repair), Assay Code: RE1-, Evaluation Type: Evaluation A (Pre-1980)) was “inactive; negative”.
`O=S1OCC2C(CO1)C1(Cl)C(Cl)=C(Cl)C2(Cl)C1(Cl)Cl` (stereo not given) was tested, and the mutagenic call (Species/Cell Type: Mammalian polychromatic erythrocytes, Assay Type: Micronucleus test, chromosome aberrations, Assay Code: MNTT, Evaluation Type: Evaluation B (Post-1980)) was “no conclusion”.
With `O=[N+]([O-])c1ccc2ncccc2c1` the mutagenic call [10] was “active; positive”.
For `CN(N=O)C(=O)C(=O)N(C)N=O`, the mutagenic call [11] was “active; positive” and the mutagenic call (Species/Cell Type: Saccharomyces cerevisiae, Assay Type: Reverse gene mutation, Assay Code: YER+, Evaluation Type: Evaluation A (Pre-1980)) was “active; positive”.
For `N[C@H](Cc1ccc(N(CCCl)CCCl)cc1)C(=O)O`, the mutagenic call [12] was “active; positive”.
For `Cc1ccc2cc3c(ccc4ccccc43)c3c2c1CC3=O`, the mutagenic call (Species/Cell Type: Chinese hamster lung (V79) cells, Assay Type: Forward gene mutation at the HPRT or ouabain locus, Assay Code: V79+, Evaluation Type: Evaluation A (Pre-1980)) was “active; positive”, the call [4] was “no conclusion” and the mutagenic call [8] was “active; positive”.
For `O=[N+]([O-])c1ccc2[nH]ccc2c1`, the mutagenic call [10] was “active; positive”.
In the case of `NC(=O)N1C2=CC=CCC2=C(CO)c2ccccc21`, the mutagenic call [13] is reported as “no conclusion” and the mutagenic call [14] is reported as “no conclusion”.
With `Oc1ccc2c(c1)cc1ccc3cccc4ccc2c1c34` the mutagenic call [15] was “inactive; negative”, the call [4] was “no conclusion” and the mutagenic call [9] was “no conclusion”.
In the case of `[NH4+].[O-2].[O-2].[O-2].[O-2].[O-2].[Sb+3].[W]`, the mutagenic call (Species/Cell Type: Syrian hamster embryo (SA7/SHE) cells, Assay Type: Cell transformation, viral enhanced, Assay Code: CT7+, Evaluation Type: Evaluation A (Pre-1980)) is reported as “active; positive”.
`Cc1ncc([N+](=O)[O-])n1CC(=O)O` was tested, and the mutagenic call [13] was “no conclusion” and the mutagenic call [14] was “no conclusion”.
`CC[C@@]1(O)C[C@H](O[C@H]2C[C@H](NC)[C@H](O[C@H]3C[C@H](O)[C@H](O[C@H]4CCC(=O)[C@H](C)O4)[C@H](C)O3)[C@H](C)O2)c2c(cc3c(c2O)C(=O)c2c(O)cccc2C3=O)[C@H]1C(=O)OC` was tested, and the mutagenic call [9] was “no conclusion”.
With `CN1CCN(c2ccc([N+](=O)[O-])c3no[n+]([O-])c23)CC1` the mutagenic call [10] was “active; positive”.
In the case of `NC(=O)C(=Cc1ccc([N+](=O)[O-])o1)c1ccccc1`, the mutagenic call [10] is reported as “active; positive”.
With `O=C(O)C1CCCCN1[N+](=O)[O-]` (stereo not given) the mutagenic call [9] was “no conclusion”.
With `CC(=O)OC(OC(C)=O)c1ccc([N+](=O)[O-])o1` the mutagenic call (Species/Cell Type: Escherichia coli WP2 UVRA, Assay Type: Tryptophan reverse gene mutation, Assay Code: WPU+, Evaluation Type: Evaluation A (Pre-1980)) was “active; positive”, the mutagenic call (Species/Cell Type: Nonhuman, Assay Type: Sister-chromatid exchange (SCE) in vitro, Assay Code: SC2+, Evaluation Type: Evaluation B (Post-1980)) was “active; positive” and the mutagenic call [10] was “active; positive”.
With `Cc1c2c(c(C)c3ccccc13)C(O)C(O)c1ccccc1-2` (stereo not given) the mutagenic call [15] was “inactive; negative”.
For `Cc1cccc(C2CO2)c1` (stereo not given), the mutagenic call (Species/Cell Type: Escherichia coli WP2 UVRA, Assay Type: Tryptophan reverse gene mutation, Assay Code: WPU+D, Dose Response: With dose response, Evaluation Type: Evaluation A (Pre-1980)) was “active; positive”.
With `c1ccc2c(c1)ccc1c3ccccc3ccc21` the mutagenic call [1] was “inactive; negative”, the mutagenic call [2] was “no conclusion” and the mutagenic call (Species/Cell Type: Mammalian germ cells, Sex: Male, Assay Type: Chromosome aberrations in vivo, Assay Code: CY9-, Evaluation Type: Evaluation A (Pre-1980)) was “inactive; negative”. The mutagenic call (Species/Cell Type: Mouse prostate cells, Assay Type: Cell transformation, Assay Code: CTM-, Evaluation Type: Evaluation A (Pre-1980)) was “inactive; negative”, the call (Species/Cell Type: Nonhuman, Assay Code: CCG+L, Evaluation Type: Evaluation A (Pre-1980)) was “active; positive” and the mutagenic call [5] was “active; positive”. For the same compound, the mutagenic call [6] was “no conclusion”, the mutagenic call [7] was “inactive; negative” and the mutagenic call [8] was “active; positive”. For the same compound, the mutagenic call (Species/Cell Type: Salmonella typhimurium, Assay Type: Forward and reverse gene mutation, host-mediated assay, Assay Code: HMA-, Evaluation Type: Evaluation A (Pre-1980)) was “inactive; negative” and the mutagenic call (Species/Cell Type: Syrian hamster embryo (SHE) cells, Assay Type: Cell transformation, clonal assay, Assay Code: CTC+, Evaluation Type: Evaluation A (Pre-1980)) was “active; positive”.
In the case of `CCCN(N=O)/C(N)=N/[N+](=O)[O-]`, the mutagenic call [11] is reported as “active; positive” and the mutagenic call [10] is reported as “active; positive”.
`CCCCCc1cc(O)cc(O)c1` was tested, and the mutagenic call (Species/Cell Type: Human lymphocytes, Assay Type: Micronucleus test in vitro, chromosome aberrations, Assay Code: MN7+, Evaluation Type: Evaluation A (Pre-1980)) was “active; positive”.
In the case of `C=CC(=O)c1ccc2c(c1)OCO2`, the mutagenic call [9] is reported as “no conclusion”.
With `O=NN1CCCC(Cl)C1` (stereo not given) the mutagenic call [12] was “active; positive” and the mutagenic call [8] was “active; positive”.
For `CCOC(=O)Nc1ccc(-c2c3ccccc3c3cc(N)ccc3[n+]2C)cc1`, the mutagenic call [10] was “active; positive”.
For `Cc1cc(C2(c3ccc(O)c(C)c3)OC(=O)c3ccccc32)ccc1O`, the mutagenic call (Species/Cell Type: Allium cepa, Assay Type: Chromosome aberrations, Assay Code: ALC+, Evaluation Type: Evaluation A (Pre-1980)) was “active; positive”.
